Columns and labels:
Assay type in all cases: cell-based, human
Dickkopf-1 (DKK1) = assay: Production of DKK1 in NHDF cells (ELISA); details: for DKK1 Production level, First day: n=3, control 0.115 ± 0.012; for DKK1 Production level, Third day: n=3, control 0.217 ± 0.021
Protocol: NHDF Cells, which had been diluted with a culture medium to give a cell density of 1×10^4 cells/well, were inoculated to 96-well plates. At 24 hours after the inoculation, the supernatant in each well of the plates was removed, followed by adding ascorbic acid 2-glucoside to each well of the plates to give a final concentration of 0.5, 1, 2, 4, or 8 mM. As a control, a cell culture system with no addition of ascorbic acid 2-glucoside was provided. At the first and third days of culturing after the addition of ascorbic acid 2-glucoside, the supernatant in each well of the plates was collected and quantified (n=3) for DKK1 with “RayBio”, a product name of an ELISA for DKK1 assay, commercialized by RayBiotech Inc., Georgia, USA. Statistical analysis of the data was performed by t-test (see “Kiso-Tokeigaku (Basic Statistics) III Statistics of Natural Science”, page 187, 2008, edited by University of Tokyo Press).

NHEK cells = assay: Proliferation of NHEK cells (methylene blue staining); details: 4 days
From the text: Normal human epidermal keratinocytes from neonatal foreskin (commercialized by Kurabo Industries Ltd., Osaka, Japan, and abbreviated as “NHEK cells”, hereinafter) were suspended in EpiLife medium (commercialized by Invitrogen Corporation, Calif., USA) supplemented with a cell-growth supplement (EDGS: EpiLife Defined Growth Supplement) (EpiLife medium supplemented with EDGS is abbreviated as “EpiLife medium”, hereinafter), and subjected to passage cultures at a confluent density of 60 to 80% under a 5% v/v CO2 condition and at 37° C. The proliferated cells were detached from culture vessels, suspended in HuMedia-KB2 medium (commercialized by Kurabo Industries Ltd., Osaka, Japan) to give a cell density of 7.5×10^3 cells/mL, inoculated to 24-well plates coated with collagen (“Cell matrix Type IV”, a product name of Nitta Gelatin Inc., Osaka, Japan) in a volume of 0.4 mL/well, and cultured for one day under a 5% v/v CO2 condition and at 37° C. […] Then, the resulting cells were washed with distilled water and admixed with 0.33 N hydrochloric acid in a volume of 0.5 mL/well to extract the dye (methylene blue), followed by transferring the resulting extract to 96-well plates in a volume of 0.1 mL/well for measuring the absorbance at wavelengths of 595 nm and 650 nm. The values, obtained by subtracting the absorbance at a wavelength of 650 nm from that of 595 nm, were regarded as indexes of cell growth rates, which were relatively evaluated by regarding the value, as a control, obtained with KB2-HI medium free of ascorbic acid 2-glucoside as 100%.

occludin = assay: TJ-related protein occludin in NHEK cells (Western); details: 3 days, CaCl2 positive control = 100%, no addition 63%
Protocol: The following experiment was conducted to examine the effect of ascorbic acid 2-glucoside on the production of TJ-related proteins that constitute cell-cell adhesion structures by focusing on occludin and ZO-1 that are focused on as TJ-related proteins known to exist in a granular layer of epidermis: As a model for typical normal human epidermal cells, NHEK cells were suspended in EpiLife medium (pH 7.4); inoculated to 12-well microplates at a cell density of 1×10^5 cells/well; cultured overnight under the conditions of 37° C. and 5% v/v CO2; and further cultured for three days under the conditions of 37° C. and 5% v/v CO2 after adding either CaCl2 as a positive control to each well to give a final concentration of 0.5 mM, or “AA2G”, a product name of a particulate composition containing anhydrous crystalline ascorbic acid 2-glucoside, commercialized by Hayashibara Co., Ltd., Okayama, Japan, to give a final concentration of 0.5 or 1 mM. […] A sample of 20 μg protein for each lane per each cell extract in respective wells was applied to sodium dodecyl sulfate polyacrylamide gel electrophoresis (SDS-PAGE) with 10% w/v SDS containing DTT, followed by assaying the concentration of occludin or ZO-1 in each cell extract with “Luminate Western HRP Substrates”, a product name of a premixed, ready-to-use chemiluminescent detection reagent using an internal standard “α-Tubulin”, commercialized by Merck KGaA, Darmstadt, Germany, wherein there were used “F-11”, a product name of an anti-occludin mouse monoclonal antibody, commercialized by Santa Cruz Biotechnology, Inc., Texas, USA, or “ZO1-1A12”, a product name of a ZO-1 mouse monoclonal antibody, commercialized by Invitrogen Corporation, Calif., USA, was used as a first antibody; and “PO447”, a product name of a horseradish peroxidase (HRPO) labeled anti-mouse IgG, commercialized by DAKO Japan Inc., Tokyo, Japan, or “PO448”, a product name of an HRPO-labeled anti-rabbit IgG, commercialized by DAKO Japan Inc., Tokyo, Japan, as a secondary antibody. […]

## O=C1O[C@H]([C@@H](O)CO)C(O)=C1O[C@H]1O[C@H](CO)[C@@H](O)[C@H](O)[C@H]1O [ascorbic acid 2-glucoside, 2-O-α-D-glucosyl-L-ascorbic acid]
Dickkopf-1 (DKK1); 0.5 mmol/L
  DKK1 Production level, First day: 0.117 ± 0.018 ng/mL
  DKK1 Production level, Third day: 0.317 ± 0.035 ng/mL
Dickkopf-1 (DKK1); 1 mmol/L
  DKK1 Production level, First day: 0.129 ± 0.017 ng/mL
  DKK1 Production level, Third day: 0.315 ± 0.042 ng/mL
Dickkopf-1 (DKK1); 2 mmol/L
  DKK1 Production level, First day: 0.149 ± 0.037 ng/mL
  DKK1 Production level, Third day: 0.339 ± 0.030 ng/mL
Dickkopf-1 (DKK1); 4 mmol/L
  DKK1 Production level, First day: 0.146 ± 0.016 ng/mL
  DKK1 Production level, Third day: 0.392 ± 0.014 ng/mL
Dickkopf-1 (DKK1); 8 mmol/L
  DKK1 Production level, First day: 0.179 ± 0.032 ng/mL
  DKK1 Production level, Third day: 0.413 ± 0.033 ng/mL
NHEK cells; 100 μM, control without ascorbic acid 2-glucoside = 100%
  Cell growth rate: 148%
NHEK cells; 300 μM, control = 100%
  Cell growth rate: 157%
NHEK cells; 900 μM, control = 100%
  Cell growth rate: 169%
occludin; 0.5 mM
  Occludin concentration in cell extract: 78%
occludin; 1 mM
  Occludin concentration in cell extract: 85%
